Like-named read-outs stand apart in the source and are kept apart here.
Legend:
CCK receptor (pancreas) = molecular target: T1, CCK receptor (pancreas) (Rattus norvegicus, UniProt P30551); assay: 125I-CCK receptor binding (pancreas); set-up: species or system rat (male Sprague-Dawley); settings: for effect on the 125I-CCK receptor binding assay: added as protease inhibitor
T1 construct: The whole pancreas was dissected free of fat tissue and was homogenized; from tissue; host or cells: rat pancreas (male Sprague-Dawley), washed membrane pellet of homogenate
T1 sequence (P30551 1-444): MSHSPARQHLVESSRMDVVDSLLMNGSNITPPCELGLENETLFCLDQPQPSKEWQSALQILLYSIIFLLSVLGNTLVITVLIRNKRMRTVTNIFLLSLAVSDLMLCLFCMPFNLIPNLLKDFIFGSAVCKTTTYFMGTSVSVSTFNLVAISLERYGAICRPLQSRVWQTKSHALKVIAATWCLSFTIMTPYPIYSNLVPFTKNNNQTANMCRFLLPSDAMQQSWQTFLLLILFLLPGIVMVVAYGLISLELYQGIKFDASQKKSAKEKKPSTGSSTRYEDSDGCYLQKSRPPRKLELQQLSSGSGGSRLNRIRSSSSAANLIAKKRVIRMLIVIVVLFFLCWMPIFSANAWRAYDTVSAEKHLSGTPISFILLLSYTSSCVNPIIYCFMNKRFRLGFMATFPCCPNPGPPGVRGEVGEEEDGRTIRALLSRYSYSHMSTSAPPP
Description: 1. CCK receptor binding (pancreas)
CCK-33 was radiolabeled with ^125 I-Bolton Hunter reagent (2000 Ci/mmole) as described by Sankara et al. (J. Biol. Chem. 254: 9349-9351, 1979). Receptor binding was performed according to Innis and Snyder (Proc. Natl. Acad. Sci. 77: 6917-6921, 1980) with the minor modification of adding the additional protease inhibitors, phenylmethane sulfonyl fluoride and o-phenanthroline. The latter two compounds have no effect on the ^125 I-CCK receptor binding assay.
Male Sprague-Dawley rats (200-350 g) were sacrificed by decapitation. The whole pancreas was dissected free of fat tissue and was homogenized in 20 volumes of ice-cold 50 mM, Tris HCl (pH 7.7 at 25° C.) with a Brinkmann Polytron PT 10. The homogenates were centrifuged at 48,000 g for 10 min. Pellets were resuspended in Tris Buffer, centrifuged as above and resuspended in 200 volumes of binding assay buffer (50 mM Tris HCl, pH 7.7 at 25° C., 5 mM dithiothrietol, 0.1 mM bacitracin, 1.2 mM phenylmethane sulfonyl fluoride and 0.5 mM o-phenanthroline). […] All assays were run in duplicate or triplicate. The reaction mixtures were incubated at 37° C. for 30 minutes and centrifuged in a Beckman Microfuge (4 minutes) immediately after adding 1 ml of ice-cold incubation buffer. The supernatant was aspirated and discarded, pellets were counted with a Beckman gamma 5000. For Scatchard analysis (Ann. N.Y. Acad. Sci. 51: 660, 1949), ^125 I-CCK-33 was progressively diluted with increasing concentrations of CCK-33.

CCK receptor (brain) = molecular target: T2, CCK receptor (brain) (Cavia porcellus, UniProt H0VZC5); assay: 125I-CCK receptor binding (brain); set-up: species or system guinea pig (male Hartley); settings: guinea pig cerebral cortex, 125I-CCK-33, 25° C., 2 hours
T2 construct: Cerebral cortex was dissected and used as a receptor source; from tissue; host or cells: guinea pig cerebral cortex (male Hartley), washed membrane pellet of homogenate
Description: 2. CCK Receptor Binding (Brain)
CCK-33 was radiolabeled and the binding was performed according to the description for the pancreas method with modification according to Saito et al. (J. Neurochem. 37, 483-490, 1981).
Male Hartley guinea pigs (300-500 g) were sacrificed by decapitation and the brains were removed and placed in ice-cold 50 mM, Tris HCl plus 7.58 g/l Trizma-7.4 (pH 7.4 at 25° C.). Cerebral cortex was dissected and used as a receptor source. Each gram of fresh guinea pig brain tissue was homogenized in 10 ml of Tris Trizma buffer with a Brinkman polytron PT-10. The homogenates were centrifuged at 42,000 g for 15 min. […] All assays were run in duplicate or triplicate. The reaction mixtures were incubated at 25° C. for 2 hours and centrifuged in a Beckman Microfuge (4 minutes) immediately after adding 1 ml of ice-cold incubation buffer. The supernatant was aspirated and discarded, pellets were counted with a Beckman gamma 5000.

CCK-B receptors = settings: brain; cited from earlier work
[1] = rat, brain synaptosomal fraction; cited from earlier work
CCK-A receptors = settings: pancreas, gallbladder, colon; cited from earlier work

T2 sequence (H0VZC5 entry or part of it): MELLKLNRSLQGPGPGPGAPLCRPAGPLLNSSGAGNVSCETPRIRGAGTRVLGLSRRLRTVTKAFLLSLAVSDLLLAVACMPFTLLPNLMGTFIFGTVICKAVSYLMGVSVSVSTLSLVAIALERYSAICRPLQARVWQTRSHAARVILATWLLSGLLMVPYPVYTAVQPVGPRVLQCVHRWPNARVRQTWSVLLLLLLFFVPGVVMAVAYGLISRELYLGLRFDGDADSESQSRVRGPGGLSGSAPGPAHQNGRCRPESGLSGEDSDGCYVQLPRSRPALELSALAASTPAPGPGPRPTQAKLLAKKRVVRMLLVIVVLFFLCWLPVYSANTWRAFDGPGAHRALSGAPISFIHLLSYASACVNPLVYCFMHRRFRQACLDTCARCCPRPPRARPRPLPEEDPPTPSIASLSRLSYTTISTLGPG

Molecule	affinity for CCK-B receptors (CCK-B receptors)	affinity for CCK-A receptors (CCK-A receptors)	further results
Cc1nnc2n1-c1ccccc1C(c1ccccc1)=NC2NC(=O)Nc1ccc(Cl)cc1 (centres unmarked) [Compound 12, N-(4-Chlorophenyl)-N'-(1-methyl-6-phenyl-4H-[1,2,4]triazolo[4,3-a][1,4]benzodiazepin-4-yl)urea]	–	–	IC50 (CCK receptor (pancreas); rat pancreas membranes, 125I-CCK-33, 37° C., 30 minutes): 82 nM; IC50 (CCK receptor (brain)): 80 nM
CSCC[C@H](NC(=O)[C@H](Cc1ccc(OS(=O)(=O)O)cc1)NC(=O)[C@@H](N)CC(=O)O)C(=O)NCC(=O)N[C@@H](Cc1c[nH]c2ccccc12)C(=O)N[C@@H](CCSC)C(=O)N[C@@H](CC(=O)O)C(=O)N[C@@H](Cc1ccccc1)C(N)=O [CCK-8s, H-Asp-Tyr(SO3 H)-Met-Gly-Trp-Met-Asp-Phe-NH2]	high affinity	high affinity	half-life [1]: less than 1 hour
c1cnc2c(c1)ccc1cccnc12 [o-phenanthroline]	–	–	effect on the 125I-CCK receptor binding assay (CCK receptor (pancreas)): no effect
CCK-4	high affinity	lower affinity	–
O=S(=O)(F)Cc1ccccc1 [phenylmethane sulfonyl fluoride]	–	–	effect on the 125I-CCK receptor binding assay (CCK receptor (pancreas)): no effect
CCK-8d: the corresponding desulphated fragment	–	lower affinity	–
gastrin	–	lower affinity	–
O=C(Nc1ccc(Cl)cc1)NC1N=C(c2ccccc2)c2ccccc2-n2cnnc21 (centres unmarked) [Compound 11, N-(4-Chlorophenyl)-N'-(6-phenyl-4H-[1,2,4]triazolo-[4,3-a][1,4]benzodiazepin-4-yl)urea]	–	–	IC50 (CCK receptor (pancreas)): 120 nM; IC50 (CCK receptor (brain)): 480 nM
CSCC[C@H](NC(=O)[C@H](Cc1c[nH]c2ccccc12)NC(=O)CCNC(=O)OC(C)(C)C)C(=O)N[C@@H](CC(=O)O)C(=O)N[C@@H](Cc1ccccc1)C(N)=O [pentagastrin]	high affinity	–	–

Source: patent US5185331A, “Triazolobenzodiazepines” (Merck & Co., Inc., priority 1991, dated 1993)
